Columns and labels:
[1] = tested on: angiotensin II infused rats; experiment: Assay A angiotensin II infusion model: heart histology (coronary vascular inflammation, myocardial injury); type: in vivo, rat; settings: out of ten animals per group; angiotensin II/salt, 4 weeks; eplerenone 100 mpk
[2] = tested on: angiotensin II infused rats; experiment: Assay A angiotensin II infusion model: systolic blood pressure by tail-cuff; type: in vivo, rat; settings: Wistar rats, 1% NaCl, angiotensin II 25 ng/min sc; eplerenone 100 mpk; 4 weeks
Description: Assay A: In Vivo Angiotensin II Infusion Model
Male Wistar rats (n—50, 10/group; BW=200 g)
2. Angiotensin 11 (25 ng/min, sc via aizet minipump)
SBP measured by tail-cuff every week

Substance: angiotensin II: angiotensin II, 25 ng/min sc via minipump, used to induce hypertension with vascular inflammation in rats (DRVYIHPF; Angiotensin-2; UniProt P01015 25-32, looked up) [reference compound]
- Animals with vascular inflammatory lesions in the coronary arteries [1]: Seven out of the ten
- Systolic Blood Pressure [2]: Systolic blood pressure increased
